Publication doi:10.1101/202341v1, “A cell-free synthetic biochemistry platform for raspberry ketone production” (biorxiv, 2017)

Assays:
[1] = target: T1, CurA (Escherichia coli, UniProt P76113); assay: ligand fluorescence in one-pot enzymatic synthesis; type: binding; conditions: 25 uM CurA without NADPH; BDMC formed in situ by TAL, PCL, MatB and CUS
T1 construct: N-terminal His6-tag; expressed in E. coli BL21 Gold (DE3) pLysS; apo form
T1 sequence (P76113 1-345): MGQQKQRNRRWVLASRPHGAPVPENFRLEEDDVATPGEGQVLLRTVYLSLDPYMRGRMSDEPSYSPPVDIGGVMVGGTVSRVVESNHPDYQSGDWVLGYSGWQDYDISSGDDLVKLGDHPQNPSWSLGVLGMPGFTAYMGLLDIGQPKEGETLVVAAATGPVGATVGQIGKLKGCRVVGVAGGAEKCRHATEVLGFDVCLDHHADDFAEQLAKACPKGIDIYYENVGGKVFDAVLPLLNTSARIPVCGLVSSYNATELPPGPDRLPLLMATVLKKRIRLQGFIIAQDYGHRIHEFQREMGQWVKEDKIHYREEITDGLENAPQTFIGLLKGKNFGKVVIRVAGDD

[2] = target: T1, CurA; assay: ligand fluorescence (excitation […] nm, emission […] nm); type: binding; conditions: apo-CurA without NADPH; titration 0-100 uM curcumin with 25 uM CurA; also reduced as substrate when NADPH is added
[3] = target: T2, TAL (Rhodotorula glutinis, UniProt U5TV35); assay: individual enzyme activity assay; type: biochemical
T2 construct: synthetic gene codon optimised for E. coli; expressed in E. coli BL21-Gold (DE3)
T2 sequence (U5TV35 1-693): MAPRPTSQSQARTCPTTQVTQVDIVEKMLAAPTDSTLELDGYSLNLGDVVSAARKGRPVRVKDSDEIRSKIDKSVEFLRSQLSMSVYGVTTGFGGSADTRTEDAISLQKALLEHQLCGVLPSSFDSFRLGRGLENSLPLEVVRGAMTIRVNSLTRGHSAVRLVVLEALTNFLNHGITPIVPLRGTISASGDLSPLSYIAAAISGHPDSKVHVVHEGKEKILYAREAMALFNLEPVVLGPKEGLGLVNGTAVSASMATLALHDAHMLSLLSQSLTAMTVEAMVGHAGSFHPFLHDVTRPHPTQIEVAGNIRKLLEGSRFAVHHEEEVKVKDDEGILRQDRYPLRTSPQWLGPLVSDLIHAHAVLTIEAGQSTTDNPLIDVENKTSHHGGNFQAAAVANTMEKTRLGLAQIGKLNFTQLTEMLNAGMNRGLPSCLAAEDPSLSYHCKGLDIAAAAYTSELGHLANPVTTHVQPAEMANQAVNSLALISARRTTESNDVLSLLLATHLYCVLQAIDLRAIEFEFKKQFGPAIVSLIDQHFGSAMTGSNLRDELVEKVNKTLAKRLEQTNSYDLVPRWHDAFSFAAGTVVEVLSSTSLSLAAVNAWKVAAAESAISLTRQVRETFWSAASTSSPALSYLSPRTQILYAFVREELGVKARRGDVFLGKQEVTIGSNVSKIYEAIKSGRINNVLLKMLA

## O=C(/C=C/c1ccc(O)cc1)CC(=O)/C=C/c1ccc(O)cc1 [BDMC]
[1]
  ligand fluorescence in one-pot enzymatic synthesis: used in the absence of NADPH to bind to BDMC/curcumin

## COc1cc(/C=C/C(=O)CC(=O)/C=C/c2ccc(O)c(OC)c2)ccc1O [curcumin]
[2]
  ligand fluorescence (excitation 425 nm, emission 520 nm): CurA could bind curcumin in the absence of NADPH

## N[C@@H](Cc1ccc(O)cc1)C(=O)O [tyrosine]
[3]
  individual enzyme activity assay: The activity of TAL and PCL enzymes was also assayed individually
